For one data set, the system named is L-02 (normal human hepatocytes) cell line. The data set can be described thus: Cytotoxicity assay, SRB method, L-02. The format is cell-based. As to conditions: Homo sapiens, Hepatocyte; L-02, 1 μM, positive control, Table S16; read-out: Inhibition rate (%). Here is the method:
(§1) Moreover, the cytotoxic activity of these isolated compounds (1–7) was evaluated against the human leukemia K562, normal human hepatocyte L-02, human pancreatic cancer ASPC-1, and human breast cancer MDA-MB-231 cell lines.
(§2) The MTT method was used to evaluate cytotoxicity against the K562 (human leukemia) cell line, and the SRB method was used to evaluate cytotoxicity against the L-02 (normal human hepatocytes), ASPC-1 (human pancreatic cancer), and MDA-MB-231 (human breast cancer) cell lines. As a positive control, Adriamycin (doxorubicin) was used.
A general note: In SRB staining, fixed cells bind dye roughly in proportion to their protein.
One may read the inhibition as how much of the control response was suppressed. `COc1cccc2c1C(=O)c1c(O)c3c(c(O)c1C2=O)C[C@@](O)(C(=O)CO)C[C@@H]3O[C@H]1C[C@H](N)[C@H](O)[C@H](C)O1` [doxorubicin, reference compound]: the inhibition at 1 µM was 83%.

Staying with this data set, now noted: Homo sapiens, Hepatocyte; L-02, 30 μM, Table S16; read-out: Inhibition rate (%).
With `C=CC1(C)CCC(C2=CCC3OC2OC3(C)C)CC1C(=C)C` (centres unmarked) [Compound 1, Lobocatalen A], the inhibition at 30 µM was 24.9%.

For `C=CC1(C)CCC(C2=CCC(C(C)(C)O)OC2O)CC1C(=C)C` (centres unmarked) [Compound 2, Lobocatalen B], the inhibition at 30 µM was found to be 30.2%.

Turning to `C=CC1(C)CCC(C2=COC(C(C)(C)O)CC2=O)CC1C(=C)C` (centres unmarked) [Compound 3, Lobocatalen C], the inhibition at 30 µM worked out at 22.1%.

Test system in another data set: not listed separately
The experiment in a line: Cytotoxicity assay, SRB method, L-02. It is filed as cell-based, human. As to conditions: human, L-02 normal hepatocyte cells; L-02 cell line, SRB method; read-out: Cytotoxic activity (IC50). How it is done: as §1, §2
The term IC50 denotes the concentration at which inhibition is half-maximal. With `C=CC1(C)CCC(C2=CCC3OC2OC3(C)C)CC1C(=C)C` (centres unmarked) [Compound 1, Lobocatalen A], the IC50 is over 30 µM.

With `C=CC1(C)CCC(C2=CCC(C(C)(C)O)OC2O)CC1C(=C)C` (centres unmarked) [Compound 2, Lobocatalen B], the IC50 was over 30 µM.

`C=CC1(C)CCC(C2=COC(C(C)(C)O)CC2=O)CC1C(=C)C` (centres unmarked) [Compound 3, Lobocatalen C]: the IC50 was over 30 µM.

Turning to `COc1cccc2c1C(=O)c1c(O)c3c(c(O)c1C2=O)C[C@@](O)(C(=O)CO)C[C@@H]3O[C@H]1C[C@H](N)[C@H](O)[C@H](C)O1` [doxorubicin, reference compound], the concentration for half-maximal inhibition (IC50) is under 1 µM.

The test system of the next data set is CuSO4-induced transgenic fluorescent zebrafish (Tg: zlyz-EGFP). The data set can be described thus: Anti-inflammatory assay in CuSO4-induced transgenic fluorescent zebrafish (macrophage count around neuromasts). As to conditions: 20 μM, Table S15. It is filed as in vivo. Here is the method:
On account of the fact that research on the anti-inflammatory activity of lobane diterpenoids in zebrafish models has not been reported up to now, we attempted to identify lobane diterpenoids with anti-inflammatory activity in zebrafish models. The anti-inflammatory effect of compounds 1–7 was assessed in CuSO4-induced transgenic fluorescent zebrafish. CuSO4 can produce an intense acute inflammatory response in the neuromasts and mechanosensorial cells in the lateral line of zebrafish, stimulating the infiltration of macrophages. Thus, the number of macrophages surrounding the neuromasts in zebrafish can be observed and counted under a fluorescence microscope. Therefore, the anti-inflammatory activity of these lobane diterpenoids can be evaluated.
Figure 5 Anti-inflammatory assays of compounds 1–7. (a) Images of inflammatory sites in CuSO4-induced transgenic fluorescent zebrafish (Tg: zlyz-EGFP) expressing enhanced green fluorescent protein (EGFP) treated with compounds 1–7, using indomethacin as a positive control.
Healthy macrophage fluorescent transgenic zebrafish (Tg: zlyz-EGFP) were provided by the Biology Institute of Shandong Academy of Science (Jinan, China). The zebrafish maintenance and anti-inflammation assay were carried out as previously described. Each zebrafish larva was photographed using a fluorescence microscope (AXIO, Zom.V16), and the number of macrophages around the nerve mound was calculated using Image-Pro Plus 6.0 software (Rockville, MD, USA). One-way analysis of variance was conducted using GraphPad Prism 7.00 software (San Diego, CA, USA). Lobocatalens A–G (1–7) were tested for anti-inflammatory activities in the zebrafish models. Three dpf (days post-fertilization), healthy macrophage fluorescent transgenic zebrafish were used as animal models to evaluate the anti-inflammatory effects of compounds 1–7.
For `C=CC1(C)CCC(C2=CCC3OC2OC3(C)C)CC1C(=C)C` (centres unmarked) [Compound 1, Lobocatalen A], the “Number of macrophages around nerve mound (mean ± SEM)” value (from here on “Number … (mean ± SEM)”) is 25.67 ± 3.14.

As for `C=CC1(C)CCC(C2=CCC(C(C)(C)O)OC2O)CC1C(=C)C` (centres unmarked) [Compound 2, Lobocatalen B], the “Number … (mean ± SEM)” value amounted to 30.00 ± 3.047.

As for `C=CC1(C)CCC(C2=COC(C(C)(C)O)CC2=O)CC1C(=C)C` (centres unmarked) [Compound 3, Lobocatalen C], the “Number … (mean ± SEM)” value is on record as 25.30 ± 1.904.

Staying with this data set, now noted: Danio rerio, Macrophage, 20 μM, Table S15, read-out: Inhibition rate.
Consider `C=CC1(C)CCC(C2=CCC3OC2OC3(C)C)CC1C(=C)C` (centres unmarked) [Compound 1, Lobocatalen A], for which the inhibition at 20 µM turned out to be 19.5%.

On to `C=CC1(C)CCC(C2=CCC(C(C)(C)O)OC2O)CC1C(=C)C` (centres unmarked) [Compound 2, Lobocatalen B], for which the inhibition at 20 µM was 5.93%.

For the compound `C=CC1(C)CCC(C2=COC(C(C)(C)O)CC2=O)CC1C(=C)C` (centres unmarked) [Compound 3, Lobocatalen C], the inhibition at 20 µM came out at 20.7%.

For another data set, the system named is MDA-MB-231 (human breast cancer) cell line. The experiment in a line: Cytotoxicity assay, SRB method, MDA-MB-231. As to conditions: Homo sapiens; MDA-MB-231, 1 μM, positive control, Table S16; read-out: Inhibition rate (%). The format is cell-based. How it is done: as §1, §2
Turning to `COc1cccc2c1C(=O)c1c(O)c3c(c(O)c1C2=O)C[C@@](O)(C(=O)CO)C[C@@H]3O[C@H]1C[C@H](N)[C@H](O)[C@H](C)O1` [doxorubicin, reference compound], the inhibition at 1 µM amounted to 55.9%.

The data set is the same for the next values; noted with them: Homo sapiens; MDA-MB-231, 30 μM, Table S16; read-out: Inhibition rate (%).
Regarding `C=CC1(C)CCC(C2=CCC3OC2OC3(C)C)CC1C(=C)C` (centres unmarked) [Compound 1, Lobocatalen A], the inhibition at 30 µM stood at 21.9%.

For the compound `C=CC1(C)CCC(C2=CCC(C(C)(C)O)OC2O)CC1C(=C)C` (centres unmarked) [Compound 2, Lobocatalen B], the inhibition at 30 µM amounted to 24.2%.

Take `C=CC1(C)CCC(C2=COC(C(C)(C)O)CC2=O)CC1C(=C)C` (centres unmarked) [Compound 3, Lobocatalen C]: the inhibition at 30 µM came to 19.9%.

Test system in a further data set: not listed separately
The data set can be described thus: Cytotoxicity assay, SRB method, MDA-MB-231. The format is cell-based, human. As to conditions: human, MDA-MB-231 breast cancer cells; MDA-MB-231 cell line, SRB method; read-out: Cytotoxic activity (IC50). Here is the method: as §1, §2
`C=CC1(C)CCC(C2=CCC3OC2OC3(C)C)CC1C(=C)C` (centres unmarked) [Compound 1, Lobocatalen A]: the IC50 is over 30 µM.

Turning to `C=CC1(C)CCC(C2=CCC(C(C)(C)O)OC2O)CC1C(=C)C` (centres unmarked) [Compound 2, Lobocatalen B], the IC50 was over 30 µM.

Regarding `C=CC1(C)CCC(C2=COC(C(C)(C)O)CC2=O)CC1C(=C)C` (centres unmarked) [Compound 3, Lobocatalen C], the IC50 was over 30 µM.

`COc1cccc2c1C(=O)c1c(O)c3c(c(O)c1C2=O)C[C@@](O)(C(=O)CO)C[C@@H]3O[C@H]1C[C@H](N)[C@H](O)[C@H](C)O1` [doxorubicin, reference compound]: the IC50 was under 1 µM.

Another data set deals with ASPC-1 (human pancreatic cancer) cell line. The data set can be described thus: Cytotoxicity assay, SRB method, ASPC-1. It is filed as cell-based. As to conditions: Homo sapiens, ASPC1; ASPC-1, 1 μM, positive control, Table S16; read-out: Inhibition rate (%). Here is the method: as §1, §2
As for `COc1cccc2c1C(=O)c1c(O)c3c(c(O)c1C2=O)C[C@@](O)(C(=O)CO)C[C@@H]3O[C@H]1C[C@H](N)[C@H](O)[C@H](C)O1` [doxorubicin, reference compound], the inhibition at 1 µM was determined as 52%.

The same data set, now with this note: Homo sapiens, ASPC1; ASPC-1, 30 μM, Table S16; read-out: Inhibition rate (%).
As to `C=CC1(C)CCC(C2=COC(C(C)(C)O)CC2=O)CC1C(=C)C` (centres unmarked) [Compound 3, Lobocatalen C], the inhibition at 30 µM worked out at 18.6%.

Test system in a further data set: not listed separately
The data set can be described thus: Cytotoxicity assay, SRB method, ASPC-1. It is filed as cell-based, human. As to conditions: human, ASPC-1 pancreatic cancer cells; ASPC-1 cell line, SRB method; read-out: Cytotoxic activity (IC50). Here is the method:
as §1, §2
For the compound `C=CC1(C)CCC(C2=COC(C(C)(C)O)CC2=O)CC1C(=C)C` (centres unmarked) [Compound 3, Lobocatalen C], the IC50 was over 30 µM.

Consider `COc1cccc2c1C(=O)c1c(O)c3c(c(O)c1C2=O)C[C@@](O)(C(=O)CO)C[C@@H]3O[C@H]1C[C@H](N)[C@H](O)[C@H](C)O1` [doxorubicin, reference compound], for which the IC50 is under 1 µM.

The test system of a further data set is K562 (human leukemia) cell line. The data set can be described thus: Cytotoxicity assay, MTT method, K562. It is filed as cell-based. As to conditions: Homo sapiens, K562, K562, 1 μM, positive control, Table S16; read-out: Inhibition rate (%). Here is the method:
as §1, §2
In general terms: Tetrazolium dyes change colour on reduction, which living cells bring about.
For the compound `COc1cccc2c1C(=O)c1c(O)c3c(c(O)c1C2=O)C[C@@](O)(C(=O)CO)C[C@@H]3O[C@H]1C[C@H](N)[C@H](O)[C@H](C)O1` [doxorubicin, reference compound], the inhibition at 1 µM turned out to be 100%.

Staying with this data set, now noted: Homo sapiens, K562, K562, 1 μM, positive control, Table S17; read-out: Inhibition rate (%).
As to `COc1cccc2c1C(=O)c1c(O)c3c(c(O)c1C2=O)C[C@@](O)(C(=O)CO)C[C@@H]3O[C@H]1C[C@H](N)[C@H](O)[C@H](C)O1` [doxorubicin, reference compound], the inhibition at 1 µM came to 100%.

The same data set, now with this note: Homo sapiens, K562, K562, 30 μM, Table S16; read-out: Inhibition rate (%).
For `C=CC1(C)CCC(C2=CCC3OC2OC3(C)C)CC1C(=C)C` (centres unmarked) [Compound 1, Lobocatalen A], the inhibition at 30 µM was found to be 39.9%.

For `C=CC1(C)CCC(C2=CCC(C(C)(C)O)OC2O)CC1C(=C)C` (centres unmarked) [Compound 2, Lobocatalen B], the inhibition at 30 µM is 48.7%.

In the case of `C=CC1(C)CCC(C2=COC(C(C)(C)O)CC2=O)CC1C(=C)C` (centres unmarked) [Compound 3, Lobocatalen C], the inhibition at 30 µM is 43.5%.

Test system in the next data set: not listed separately
The data set can be described thus: Cytotoxicity assay, MTT method, K562. The format is cell-based, human. As to conditions: human, K562 leukemia cells; K562 cell line, MTT method; read-out: Cytotoxic activity (IC50). Here is the method: as §1, §2
For the compound `C=CC1(C)CCC(C2=CCC3OC2OC3(C)C)CC1C(=C)C` (centres unmarked) [Compound 1, Lobocatalen A], the IC50 was over 30 µM.

For the compound `C=CC1(C)CCC(C2=CCC(C(C)(C)O)OC2O)CC1C(=C)C` (centres unmarked) [Compound 2, Lobocatalen B], the IC50 was over 30 µM.

In the case of `C=CC1(C)CCC(C2=COC(C(C)(C)O)CC2=O)CC1C(=C)C` (centres unmarked) [Compound 3, Lobocatalen C], the IC50 was over 30 µM.

With `COc1cccc2c1C(=O)c1c(O)c3c(c(O)c1C2=O)C[C@@](O)(C(=O)CO)C[C@@H]3O[C@H]1C[C@H](N)[C@H](O)[C@H](C)O1` [doxorubicin, reference compound], the IC50 was under 1 µM.

For the origin of these results see article PMC10143306, “Seven New Lobane Diterpenoids from the Soft Coral Lobophytum catalai” (Marine Drugs, 2023).
